Experimental data published in patent US20060228297A1, “Thorium-227 for use in radiotherapy of soft tissue disease” (priority 2003, published 2006).

Test system: humans
Test: Estimate of ^223Ra toxicity from prior art (translated from ^224Ra dog data)
Conditions: expected for humans, assuming similar haematological toxicity in dogs and humans
Description: Because of the lack of human data on toxicity of radium-223 and radium-224, an assumed radiotoxicity for ^223Ra can be derived as follows, using published data for radium-224 in dogs. The decay series (including the decays of daughter nuclides) of both ^224Ra and ^223Ra causes an emission of four alpha panicles per radium atoms. The total alpha particle doses from ^223Ra and ^224Ra in equilibrium with daughters are approximately 26.3 and 27.1 MeV per transformation respectively and are therefore closely equivalent. The half-lives of ^224Ra is 3.62 days and for ^223Ra it is 11.43 days. This means that per activity unit injected, the skeletal dose from ^223Ra would be approximately 3.1 times that from ^224Ra, taking into account alpha energy and half-life differences, and assuming long-term biological retention of the radionuclide (i.e., the clearance is governed by the physical half-life of the radionuclide). This is a valid assumption because Ra is a Ca analogue and is readily incorporated into the skeleton.
At 350 kBq/kg death, caused by haematological dyscrasia resulting from bone marrow destruction, occurred in some subjects (3 dogs out of 8). It may therefore be assumed that the maximum tolerable dose of ^224Ra is between 120 and 350 kBq/kg in dogs. Translated into ^223Ra, as described above, this would correspond to 39-113 kBq/kg of ^223Ra. […]

For `[223Ra]` [^223Ra, radium-223], the “Maximum tolerable dose, translated from ^224Ra dog data” value was 39-113 kBq/kg.
